The text below walks through data of patent US20100209537A1, “Metal complexes with anticancer activity” (priority 2009, published 2010).

The test system of series [1] is ovarian cancer cell line A2780. Kind of series: MTT assay, ovarian cancer cell line A2780. The format is cell-based, human. Conditions: n = 3, A2780. How it is done:
MTT [3-(4,5-dimethylthiazol-2yl)-2,5-diphenyltetrazolium bromide] method:
MTT is used to measure the metabolic activity of viable cells. The assay is non-radioactive and can be performed entirely in a micro titer plate (MTP). It is suitable for measuring cell proliferation, cell viability or cytotoxicity. The reaction produces water-insoluble formazan salt that must be solubilized. Procedure involves culturing the cells in a 96-well micro titer plate, and then incubating them with MTT solution for approximately 2 hours. During incubation period, viable cells convert MTT to a water-insoluble formazan dye. The formazan dye in the MTP is solubilized and quantified with an ELISA plate reader. The absorbance directly correlates with the cell number. This can be applicable for adherent cells cultured in MTP.
Compounds were tested at concentrations of 3 and 30 μg/ml by MTT assay using the ovarian cancer cell line A2780.
(In general: Formazan colour is commonly taken as a measure of viable cells.)

Series [2] is described as follows: Solubility in water and organic solvents. The format is physicochemical.
Series [3] is described as follows: Stability at room temperature. Type of series: physicochemical.

As for `COc1cccc(C=NNc2nc3ccccc3nc2Cl)c1O` [RM5, 2-Hydroxy-3-methoxybenzaldehyde-1-(3-chloro-2-quinoxalinyl)-hydrazone], the “Percent surviving cells of DMSO control (Mean)” value (shortened to “Percent surviving cells”) in series [1] (3 μg/ml) is reported as 0.6%. Further, the “Percent surviving cells” value in series [1] (30 μg/ml) was found to be 0.2%. In series [2], the “solubility in dimethylformamide and dimethylsulphoxide” value was “fairly soluble”; the “solubility in methanol and acetone” value is “very slightly soluble”; the solubility in water result was “insoluble”. Further, the “stability at room temperature” value in series [3] was “stable”.

Turning to `Clc1nc2ccccc2nc1NN=Cc1ccccn1` [RM11, 2-pyridinecarbaldehyde-2-(3-chloro-2-quinoxalinyl)hydrazone], in series [1] (3 μg/ml), the “Percent surviving cells” value is 0.4%. Moreover, the “Percent surviving cells” value in series [1] (30 μg/ml) is given as 0.7%. Further, in series [2], the “solubility in dimethylformamide and dimethylsulphoxide” value is on record as “fairly soluble”; the “solubility in methanol and acetone” value was “very slightly soluble”; the solubility in water entry is given as “insoluble”. The “stability at room temperature” value in series [3] is “stable”.

As for `Oc1ccc2ccccc2c1C=NNc1nc2ccccc2nc1Cl` [RM8, 2-hydroxy-1-naphthaldehyde-1-(3-chloro-2-quinoxalinyl)hydrazone], in series [1] (3 μg/ml), the “Percent surviving cells” value amounted to 0.3%. In series [1] (30 μg/ml), the “Percent surviving cells” value came out at 0.1%. Also, in series [2], the “solubility in dimethylformamide and dimethylsulphoxide” value is on record as “fairly soluble”; the “solubility in methanol and acetone” value is “very slightly soluble”; the solubility in water result is listed as “insoluble”. Moreover, in series [3], the “stability at room temperature” value is reported as “stable”.

In the case of `Clc1nc2ccccc2nc1NN=Cc1ccccn1` [RM10, 2-pyridinecarbaldehyde-2-(3-chloro-2-quinoxalinyl)hydrazone], in series [1] (3 μg/ml), the “Percent surviving cells” value is listed as 4.6%. Moreover, the “Percent surviving cells” value in series [1] (30 μg/ml) turned out to be 1%. Also, in series [2], the “solubility in dimethylformamide and dimethylsulphoxide” value was “fairly soluble”; the “solubility in methanol and acetone” value is recorded as “very slightly soluble”; the solubility in water result is on record as “insoluble”. For the same compound, in series [3], the “stability at room temperature” value was “stable”.

Turning to `Oc1ccc2ccccc2c1C=NNc1nc2ccccc2nc1Cl` [RM7, 2-hydroxy-1-naphthaldehyde-1-(3-chloro-2-quinoxalinyl)hydrazone], the “Percent surviving cells” value in series [1] (3 μg/ml) is 6.6%. Further, the “Percent surviving cells” value in series [1] (30 μg/ml) worked out at 0.9%. Moreover, in series [2], the “solubility in dimethylformamide and dimethylsulphoxide” value is “fairly soluble”; the “solubility in methanol and acetone” value is reported as “very slightly soluble”; the solubility in water result was “insoluble”. The “stability at room temperature” value in series [3] is “stable”.

Regarding `Clc1nc2ccccc2nc1NN=Cc1ccco1` [RM14, 2-furaldehyde-2-(3-chloro-2-quinoxalinyl)hydrazone], the “Percent surviving cells” value in series [1] (3 μg/ml) was determined as 13.2%. Besides, the “Percent surviving cells” value in series [1] (30 μg/ml) was 0.7%. In addition, in series [2], the “solubility in dimethylformamide and dimethylsulphoxide” value was “fairly soluble”; the “solubility in methanol and acetone” value is “very slightly soluble”; the solubility in water result is reported as “insoluble”. In series [3], the “stability at room temperature” value is recorded as “stable”.

As to `Oc1ccccc1C=NNc1nc2ccccc2nc1Cl` [RM2, 2-hydroxybenzaldehyde-1-(3-chloro-2-quinoxalinyl) hydrazone], the “Percent surviving cells” value in series [1] (3 μg/ml) is 0.4%. Moreover, the “Percent surviving cells” value in series [1] (30 μg/ml) was determined as 0.4%. Further, in series [2], the “solubility in dimethylformamide and dimethylsulphoxide” value is reported as “fairly soluble”; the “solubility in methanol and acetone” value is “very slightly soluble”; the solubility in water result is listed as “insoluble”. The “stability at room temperature” value in series [3] was “stable”.
